Experimental data published in ChEMBL document CHEMBL6087458, “The Discovery of a Novel AXL/Triple Angiokinase Inhibitor Based on 6-Chloro-Substituted Indolinone and Side Chain Methyl Substitution Inhibiting Pancreatic Cancer Growth and Metastasis” (J Med Chem, 2025).

Experiments:
[1] = Cytotoxicity against mouse NIH/3T3 cells assessed as cell viability incubated for 72 hrs by MTT assay; type: toxicity, cell-based, NIH3T3
[2] = Cytotoxicity against human HUVEC cells assessed as cell viability incubated for 72 hrs by MTT assay; type: toxicity, cell-based
BXPC-3 = assay: cells; conditions: Homo sapiens, BXPC-3, 72 h
Description: Antiproliferative activity against human BXPC-3 cells assessed as cell viability incubated for 72 hrs by MTT assay

MDA-MB-231 = assay: cells; conditions: Homo sapiens, MDA-MB-231, 72 h
Description: Antiproliferative activity against human MDA-MB-231 cells assessed as cell viability incubated for 72 hrs by MTT assay

A549 = assay: cells; conditions: Homo sapiens, A549, 72 h
Description: Antiproliferative activity against human A549 cells assessed as cell viability incubated for 72 hrs by MTT assay

| SMILES | IC50 at 72 h [1] | IC50 at 72 h [2] | IC50 (BXPC-3) | IC50 (MDA-MB-231) | IC50 (A549) |
| --- | --- | --- | --- | --- | --- |
| COC(=O)c1ccc2c(c1)NC(=O)/C2=C(\Nc1ccc(N(C)C(=O)C(C)N2CCSCC2)cc1)c1ccccc1 (racemic) | > 10000 nM | > 10000 nM | > 10000 nM | > 10000 nM | – |
| CC(C(=O)N(C)c1ccc(N/C(=C2\C(=O)Nc3cc(Br)ccc32)c2ccccc2)cc1)N1CCCN(C)CC1 (racemic) | 3900 nM | 2150 nM | 1950 nM | 1860 nM | – |
| CC(C(=O)N(C)c1ccc(N/C(=C2\C(=O)Nc3cc(Br)ccc32)c2ccccc2)cc1)N(C)CCN(C)C (racemic) | 770 nM | 1770 nM | 3740 nM | 4540 nM | – |
| COC(=O)c1ccc2c(c1)NC(=O)/C2=C(\Nc1ccc(N(C)C(=O)C(C)N2CCNCC2)cc1)c1ccccc1 (racemic) | > 10000 nM | > 10000 nM | > 10000 nM | > 10000 nM | – |
| COC(=O)c1ccc2c(c1)NC(=O)/C2=C(\Nc1ccc(N(C)C(=O)C(C)N2CCCN(C)CC2)cc1)c1ccccc1 (racemic) | 2930 nM | 1810 nM | 1660 nM | 5780 nM | – |
| COC(=O)c1ccc2c(c1)NC(=O)/C2=C(\Nc1ccc(N(C)C(=O)C(C)N(C)CCN(C)C)cc1)c1ccccc1 (racemic) | 2570 nM | 2000 nM | 5780 nM | 5980 nM | – |
| CCN1CCN(C(C)C(=O)N(C)c2ccc(N/C(=C3\C(=O)Nc4cc(C(=O)OC)ccc43)c3ccccc3)cc2)CC1 (racemic) | 2100 nM | 1500 nM | 1640 nM | 5070 nM | – |
| COC(=O)c1ccc2c(c1)NC(=O)/C2=C(\Nc1ccc(N(C)C(=O)C(C)N2CCOCC2)cc1)c1ccccc1 (racemic) | > 10000 nM | > 10000 nM | > 10000 nM | > 10000 nM | – |
| CC(C(=O)N(C)c1ccc(N/C(=C2\C(=O)Nc3cc(Br)ccc32)c2ccccc2)cc1)N1CCSCC1 (racemic) | > 10000 nM | > 10000 nM | > 10000 nM | > 10000 nM | – |
| CC(C(=O)N(C)c1ccc(N/C(=C2\C(=O)Nc3cc(Br)ccc32)c2ccccc2)cc1)N1CCN(C)CC1 (racemic) | 2140 nM | 950 nM | 1890 nM | 1440 nM | – |
| CCN1CCN(C(C)C(=O)N(C)c2ccc(N/C(=C3\C(=O)Nc4cc(Br)ccc43)c3ccccc3)cc2)CC1 (racemic) | 1870 nM | 670 nM | 2440 nM | 2470 nM | – |
| COC(=O)c1ccc2c(c1)NC(=O)/C2=C(\Nc1ccc(N(C)C(=O)C(C)N2CCC(N(C)C)CC2)cc1)c1ccccc1 (racemic) | 1990 nM | 1080 nM | 1690 nM | 5540 nM | – |
| COC(=O)c1ccc2c(c1)NC(=O)/C2=C(\Nc1ccc(N(C)C(=O)C(C)N2CCN(CCO)CC2)cc1)c1ccccc1 (racemic) | 1370 nM | 1090 nM | 2470 nM | 4960 nM | – |
| CC(C(=O)N(C)c1ccc(N/C(=C2\C(=O)Nc3cc(Br)ccc32)c2ccccc2)cc1)N1CCC(N(C)C)CC1 (racemic) | 1590 nM | 1110 nM | 1740 nM | 1490 nM | – |
| COC(=O)c1ccc2c(c1)NC(=O)/C2=C(\Nc1ccc(N(C)C(=O)C(C)N2CCN(C)CC2)cc1)c1ccccc1 (racemic) | 2250 nM | 1430 nM | 3740 nM | 5340 nM | – |
| CC(C(=O)N(C)c1ccc(N/C(=C2\C(=O)Nc3cc(Cl)ccc32)c2ccccc2)cc1)N1CCN(C)CC1 (racemic) | 1430 nM | 840 nM | 1890 nM | 1240 nM | – |
| CC(C(=O)N(C)c1ccc(N/C(=C2\C(=O)Nc3cc(Cl)ccc32)c2ccccc2)cc1)N1CCOCC1 (racemic) | > 10000 nM | > 10000 nM | > 10000 nM | > 10000 nM | – |
| CC(C(=O)N(C)c1ccc(N/C(=C2\C(=O)Nc3cc(Cl)ccc32)c2ccccc2)cc1)N1CCC(N(C)C)CC1 (racemic) | 980 nM | 830 nM | 2040 nM | 1980 nM | – |
| CC(C(=O)N(C)c1ccc(N/C(=C2\C(=O)Nc3cc(Br)ccc32)c2ccccc2)cc1)N1CCN(CCO)CC1 (racemic) | 2110 nM | 1980 nM | 2310 nM | 2060 nM | – |
| CC(=O)O[C@H]1C(=O)[C@@]2(C)[C@H]([C@H](OC(=O)c3ccccc3)[C@]3(O)C[C@H](OC(=O)[C@H](O)[C@@H](NC(=O)c4ccccc4)c4ccccc4)C(C)=C1C3(C)C)[C@]1(OC(C)=O)CO[C@@H]1C[C@@H]2O [PACLITAXEL] | – | – | – | – | 1340 nM |
